Reference: the NIST ThermoML archive (doi:10.1016/j.fluid.2017.03.025)
Where “and” joins values, the source holds several entries; their conditions need not be identical. Equal values may be shown once. Numbers after ± are expanded uncertainties.

Assay: wn = mass fraction of the nth substance listed
Conditions: discharge crucible method; for mass density / viscosity: 101 kPa, Liquid

Q: What does the source list for [Zn] [zinc] + [Ga]?
A: surface tension liquid-gas (323 K, w1 = 0.036): 722.9 ± 1 mN/m; mass density (323 K, w1 = 0.036): 6081 ± 10 kg/m3; viscosity (323 K, w1 = 0.036): 1.576 ± 0.084 mPa·s; surface tension liquid-gas (373 K, w1 = 0.036): 719.2 ± 1 mN/m; mass density (373 K, w1 = 0.036): 6049 ± 10 kg/m3; viscosity (373 K, w1 = 0.036): 1.336 ± 0.079 mPa·s; surface tension liquid-gas (423 K, w1 = 0.036): 715.6 ± 1 mN/m; surface tension liquid-gas (423 K, w1 = 0.25): 733 ± 1 mN/m; mass density (423 K, w1 = 0.036): 6018 ± 10 kg/m3; viscosity (423 K, w1 = 0.036): 1.139 ± 0.076 mPa·s; mass density (423 K, w1 = 0.25): 6205 ± 10 kg/m3; viscosity (423 K, w1 = 0.25): 2.596 ± 0.099 mPa·s; surface tension liquid-gas (473 K, w1 = 0.036): 712 ± 0.9 mN/m; surface tension liquid-gas (473 K, w1 = 0.25): 728.9 ± 0.9 mN/m; mass density (473 K, w1 = 0.036): 5989 ± 10 kg/m3; viscosity (473 K, w1 = 0.036): 1.018 ± 0.058 mPa·s; mass density (473 K, w1 = 0.25): 6175 ± 10 kg/m3; viscosity (473 K, w1 = 0.25): 2.037 ± 0.077 mPa·s; surface tension liquid-gas (523 K, w1 = 0.036): 708.4 ± 0.9 mN/m; surface tension liquid-gas (523 K, w1 = 0.25): 723.5 ± 0.9 mN/m; mass density (523 K, w1 = 0.036): 5956 ± 10 kg/m3; viscosity (523 K, w1 = 0.036): 0.924 ± 0.049 mPa·s; mass density (523 K, w1 = 0.25): 6146 ± 10 kg/m3; viscosity (523 K, w1 = 0.25): 1.733 ± 0.063 mPa·s; surface tension liquid-gas (573 K, w1 = 0.036): 704.9 ± 0.8 mN/m; surface tension liquid-gas (573 K, w1 = 0.25): 718.9 ± 1.1 mN/m; surface tension liquid-gas (573 K, w1 = 0.5): 748.5 ± 1.3 mN/m; mass density (573 K, w1 = 0.036): 5929 ± 10 kg/m3; viscosity (573 K, w1 = 0.036): 0.845 ± 0.044 mPa·s; mass density (573 K, w1 = 0.25): 6115 ± 10 kg/m3; viscosity (573 K, w1 = 0.25): 1.529 ± 0.062 mPa·s; mass density (573 K, w1 = 0.5): 6355 ± 10 kg/m3; viscosity (573 K, w1 = 0.5): 2.861 ± 0.093 mPa·s; surface tension liquid-gas (623 K, w1 = 0.036): 701.2 ± 0.8 mN/m; surface tension liquid-gas (623 K, w1 = 0.25): 714.6 ± 1 mN/m; surface tension liquid-gas (623 K, w1 = 0.5): 739.8 ± 1.3 mN/m; surface tension liquid-gas (623 K, w1 = 0.75): 773.5 ± 1.5 mN/m; mass density (623 K, w1 = 0.036): 5896 ± 9 kg/m3; viscosity (623 K, w1 = 0.036): 0.779 ± 0.04 mPa·s; mass density (623 K, w1 = 0.25): 6079 ± 10 kg/m3; viscosity (623 K, w1 = 0.25): 1.375 ± 0.053 mPa·s; mass density (623 K, w1 = 0.5): 6323 ± 11 kg/m3; viscosity (623 K, w1 = 0.5): 2.394 ± 0.079 mPa·s; mass density (623 K, w1 = 0.75): 6584 ± 11 kg/m3; viscosity (623 K, w1 = 0.75): 3.588 ± 0.11 mPa·s; surface tension liquid-gas (673 K, w1 = 0.036): 697.7 ± 0.8 mN/m; surface tension liquid-gas (673 K, w1 = 0.25): 709.7 ± 0.9 mN/m; surface tension liquid-gas (673 K, w1 = 0.5): 733.3 ± 1.2 mN/m; surface tension liquid-gas (673 K, w1 = 0.75): 764.1 ± 1.6 mN/m; surface tension liquid-gas (673 K, w1 = 0.9): 792.3 ± 2 mN/m; mass density (673 K, w1 = 0.036): 5866 ± 10 kg/m3; viscosity (673 K, w1 = 0.036): 0.736 ± 0.037 mPa·s; mass density (673 K, w1 = 0.25): 6052 ± 10 kg/m3; viscosity (673 K, w1 = 0.25): 1.261 ± 0.048 mPa·s; mass density (673 K, w1 = 0.5): 6302 ± 11 kg/m3; viscosity (673 K, w1 = 0.5): 2.112 ± 0.068 mPa·s; mass density (673 K, w1 = 0.75): 6557 ± 11 kg/m3; viscosity (673 K, w1 = 0.75): 3.019 ± 0.09 mPa·s; mass density (673 K, w1 = 0.9): 6721 ± 12 kg/m3; viscosity (673 K, w1 = 0.9): 3.809 ± 0.11 mPa·s; surface tension liquid-gas (723 K, w1 = 0.036): 693.8 ± 0.5 mN/m and 694.3 ± 0.5 mN/m; surface tension liquid-gas (723 K, w1 = 0.25): 705.2 ± 0.9 mN/m and 705.5 ± 0.9 mN/m; surface tension liquid-gas (723 K, w1 = 0.5): 725.3 ± 1.1 mN/m; surface tension liquid-gas (723 K, w1 = 0.75): 753.4 ± 1.5 mN/m and 754 ± 1.5 mN/m; surface tension liquid-gas (723 K, w1 = 0.9): 780.5 ± 2.3 mN/m and 780.4 ± 2.3 mN/m; surface tension liquid-gas (723 K, w1 = 1): 812.1 ± 0.7 mN/m; mass density (723 K, w1 = 0.036): 5836 ± 6 kg/m3; viscosity (723 K, w1 = 0.036): 0.709 ± 0.035 mPa·s and 0.699 ± 0.035 mPa·s; mass density (723 K, w1 = 0.25): 6024 ± 10 kg/m3 and 6025 ± 10 kg/m3; viscosity (723 K, w1 = 0.25): 1.148 ± 0.044 mPa·s and 1.159 ± 0.044 mPa·s; mass density (723 K, w1 = 0.5): 6277 ± 11 kg/m3 and 6276 ± 11 kg/m3; viscosity (723 K, w1 = 0.5): 1.875 ± 0.06 mPa·s and 1.871 ± 0.06 mPa·s; mass density (723 K, w1 = 0.75): 6537 ± 11 kg/m3 and 6536 ± 11 kg/m3; viscosity (723 K, w1 = 0.75): 2.625 ± 0.078 mPa·s; mass density (723 K, w1 = 0.9): 6699 ± 12 kg/m3 and 6700 ± 12 kg/m3; viscosity (723 K, w1 = 0.9): 3.225 ± 0.096 mPa·s and 3.241 ± 0.096 mPa·s; mass density (723 K, w1 = 1): 6831 ± 4 kg/m3; viscosity (723 K, w1 = 1): 3.721 ± 0.095 mPa·s; surface tension liquid-gas (773 K, w1 = 0.036): 690.8 ± 0.7 mN/m; surface tension liquid-gas (773 K, w1 = 0.25): 700.4 ± 0.8 mN/m; surface tension liquid-gas (773 K, w1 = 0.5): 717.7 ± 1 mN/m; surface tension liquid-gas (773 K, w1 = 0.75): 744.6 ± 1.4 mN/m; surface tension liquid-gas (773 K, w1 = 0.9): 768.7 ± 1.7 mN/m; mass density (773 K, w1 = 0.036): 5806 ± 10 kg/m3; viscosity (773 K, w1 = 0.036): 0.662 ± 0.034 mPa·s; mass density (773 K, w1 = 0.25): 5998 ± 10 kg/m3; viscosity (773 K, w1 = 0.25): 1.098 ± 0.041 mPa·s; mass density (773 K, w1 = 0.5): 6249 ± 11 kg/m3; viscosity (773 K, w1 = 0.5): 1.693 ± 0.053 mPa·s; mass density (773 K, w1 = 0.75): 6512 ± 11 kg/m3; viscosity (773 K, w1 = 0.75): 2.323 ± 0.068 mPa·s; mass density (773 K, w1 = 0.9): 6679 ± 12 kg/m3; viscosity (773 K, w1 = 0.9): 2.813 ± 0.083 mPa·s; surface tension liquid-gas (823 K, w1 = 0.9): 755.5 ± 1.5 mN/m; mass density (823 K, w1 = 0.9): 6657 ± 12 kg/m3; viscosity (823 K, w1 = 0.9): 2.517 ± 0.075 mPa·s
